Experimental data as given in patent US20210038607A1, “OXADIAZOLYLTHIOPHENE DERIVATIVES USEFUL AS HISTONE DEACETYLASE INHIBITORS” (Karus Therapeutics Limited, priority 2018, published 2021).

Tests used:
Recombinant human HDAC6 = target: T1, Recombinant human HDAC6 (Homo sapiens, UniProt Q9UBN7); assay: HDAC6 biochemical assay, AMC-labeled peptide substrate; conditions: HDAC6; read-out: HDAC Isoform IC50 (nM) 6
T1 construct: full length, MW=159 kDa; GST (N); host or cells: Sf9 insect cells (baculovirus)
T1 sequence (Q9UBN7 1-1215): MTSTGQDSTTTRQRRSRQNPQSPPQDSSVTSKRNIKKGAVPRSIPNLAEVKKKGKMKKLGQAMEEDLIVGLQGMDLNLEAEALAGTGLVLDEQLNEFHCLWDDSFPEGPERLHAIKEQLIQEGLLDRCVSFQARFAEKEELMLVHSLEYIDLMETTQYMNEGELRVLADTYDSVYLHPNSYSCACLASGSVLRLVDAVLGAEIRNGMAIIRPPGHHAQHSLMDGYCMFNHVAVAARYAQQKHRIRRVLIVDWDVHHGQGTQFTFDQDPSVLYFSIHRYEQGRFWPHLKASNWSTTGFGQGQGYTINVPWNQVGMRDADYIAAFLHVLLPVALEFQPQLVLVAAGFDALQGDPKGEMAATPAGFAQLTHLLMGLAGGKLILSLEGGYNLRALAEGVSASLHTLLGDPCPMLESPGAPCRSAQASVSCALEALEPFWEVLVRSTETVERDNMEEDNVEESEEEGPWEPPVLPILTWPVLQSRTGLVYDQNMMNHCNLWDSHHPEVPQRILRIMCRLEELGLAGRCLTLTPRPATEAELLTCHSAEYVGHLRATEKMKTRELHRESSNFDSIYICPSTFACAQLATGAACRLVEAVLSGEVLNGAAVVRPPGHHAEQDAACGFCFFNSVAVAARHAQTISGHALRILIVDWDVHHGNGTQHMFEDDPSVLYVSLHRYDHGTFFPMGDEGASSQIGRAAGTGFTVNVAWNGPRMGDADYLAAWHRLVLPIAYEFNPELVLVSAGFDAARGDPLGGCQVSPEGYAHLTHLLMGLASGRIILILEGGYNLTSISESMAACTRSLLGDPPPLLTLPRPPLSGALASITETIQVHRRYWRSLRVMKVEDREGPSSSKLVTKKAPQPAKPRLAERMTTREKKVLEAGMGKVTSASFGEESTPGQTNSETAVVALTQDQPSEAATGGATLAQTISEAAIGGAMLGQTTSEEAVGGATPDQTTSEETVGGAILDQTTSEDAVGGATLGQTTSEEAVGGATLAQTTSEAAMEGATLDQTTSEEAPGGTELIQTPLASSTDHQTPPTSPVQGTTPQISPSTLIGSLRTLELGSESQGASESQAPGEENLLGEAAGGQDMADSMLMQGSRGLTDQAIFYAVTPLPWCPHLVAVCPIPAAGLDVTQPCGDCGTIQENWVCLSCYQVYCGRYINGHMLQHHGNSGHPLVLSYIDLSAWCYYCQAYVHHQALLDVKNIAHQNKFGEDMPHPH
Outline: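 Two-step fluorogenic read-out: enzyme deacetylates 50 μM RHKK(Ac)AMC for 1 h at 30° C in pH 8.0 Tris buffer with BSA and 1% DMSO, then developer cleavage gives signal at Ex 360/Em 460. Enzyme: 0.3 ng/ul recombinant full-length human HDAC6, GST-tagged, Sf9-expressed.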

Human HDAC11 = target: T2, Human HDAC11 (Homo sapiens, UniProt Q96DB2); assay: HDAC11 biochemical assay, class IIa-specific substrate; conditions: read-out: HDAC Isoform IC50 (nM) 11
T2 construct: Human HDAC11 (full length); His (N); host or cells: baculovirus expression system
T2 sequence (Q96DB2 1-347): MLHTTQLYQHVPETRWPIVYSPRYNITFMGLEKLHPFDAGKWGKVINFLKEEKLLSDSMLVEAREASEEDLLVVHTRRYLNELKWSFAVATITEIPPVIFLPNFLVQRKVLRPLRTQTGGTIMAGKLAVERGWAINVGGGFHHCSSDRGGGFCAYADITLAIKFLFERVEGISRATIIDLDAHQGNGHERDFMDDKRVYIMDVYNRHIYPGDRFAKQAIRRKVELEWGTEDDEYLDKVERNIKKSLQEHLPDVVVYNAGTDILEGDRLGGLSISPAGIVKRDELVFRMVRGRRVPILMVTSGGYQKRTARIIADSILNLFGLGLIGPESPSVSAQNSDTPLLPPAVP
Outline: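 Full-length N-His human HDAC11 from baculovirus, 5 ng/μl, incubated with 50 μM Boc-Lys(trifluoroacetyl)-AMC for 30 min at 30 °C. Buffer: 50 mM Tris-HCl pH 8.0, 137 mM NaCl, 2.7 mM KCl, 1 mM MgCl2, 1 mg/mL BSA, 1% DMSO. Developer releases AMC; fluorescence read at 360/460 nm.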

[1] = target: T3, Complex of human HDAC3 and human NCOR2 (Homo sapiens, UniProt O15379); assay: HDAC3 biochemical assay, AMC-labeled peptide substrate; conditions: read-out: HDAC Isoform IC50 (nM) 3
T3 construct: full length with C-terminal His tag, MW=49.7 kDa; His (C); host or cells: baculovirus expression system (co-expressed)
Outline: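 Two-stage fluorogenic read: compounds incubated 1 h at 30° C with 50 μM RHKK(Ac)AMC and 0.1 ng/ul HDAC3–NCOR2(395-489) complex (Tris pH8.0, NaCl, KCl, MgCl2, BSA, 1% DMSO). Developer digestion of deacetylated product gives signal at Ex 360/Em 460.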

T3 sequence (O15379 whole entry, canonical isoform): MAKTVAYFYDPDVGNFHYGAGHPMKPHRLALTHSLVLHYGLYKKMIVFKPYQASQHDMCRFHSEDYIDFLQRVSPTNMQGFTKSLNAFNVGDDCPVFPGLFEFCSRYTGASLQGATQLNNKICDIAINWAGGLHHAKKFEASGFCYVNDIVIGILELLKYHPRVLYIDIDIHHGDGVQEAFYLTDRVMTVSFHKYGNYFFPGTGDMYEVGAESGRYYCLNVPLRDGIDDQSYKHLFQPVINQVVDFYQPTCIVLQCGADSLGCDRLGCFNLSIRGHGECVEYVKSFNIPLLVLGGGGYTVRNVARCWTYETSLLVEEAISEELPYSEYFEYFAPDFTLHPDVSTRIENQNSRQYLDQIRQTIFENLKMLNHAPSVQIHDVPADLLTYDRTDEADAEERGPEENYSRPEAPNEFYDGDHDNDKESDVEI
T3 sequence (Q9Y618 395-489 partner limits assumed): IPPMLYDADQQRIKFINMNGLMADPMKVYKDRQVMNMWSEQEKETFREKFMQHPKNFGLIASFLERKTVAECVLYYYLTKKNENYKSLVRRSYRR

`CS(=O)(=O)c1nccc(N(Cc2ccc(-c3noc(C(F)(F)F)n3)s2)c2cnccn2)n1` [Example CE, 2-Methanesulfonyl-N-(pyrazin-2-yl)-N-({5-[5-(trifluoromethyl)-1,2,4-oxadiazol-3-yl]thiophen-2-yl}methyl)pyrimidin-4-amine] was tested, and the IC50 (Recombinant human HDAC6) was at most 500 nM.

`FC(F)(F)c1nc(-c2ccc(CN(c3ccccn3)c3cnccn3)s2)no1` [Example V, N-(Pyridin-2-yl)-N-({5-[5-(trifluoromethyl)-1,2,4-oxadiazol-3-yl]thiophen-2-yl}methyl)pyrazin-2-amine] gave an IC50 (Human HDAC11) of over 10000 nM, an IC50 (Recombinant human HDAC6) of at most 500 nM and an IC50 [1] of over 10000 nM.

With `FC(F)(F)c1nc(-c2ccc(CN(c3ccncn3)c3cnccn3)s2)no1` [Example BZ, N-(Pyrazin-2-yl)-N-({5-[5-(trifluoromethyl)-1,2,4-oxadiazol-3-yl]thiophen-2-yl}methyl)pyrimidin-4-amine] the IC50 (Human HDAC11) was over 10000 nM, the IC50 (Recombinant human HDAC6) was at most 500 nM and the IC50 [1] was over 10000 nM.

Compound `FC(F)(F)c1ccc(N(Cc2ccc(-c3noc(C(F)(F)F)n3)s2)c2cnccn2)nn1` [Example DH, N-(Pyrazin-2-yl)-6-(trifluoromethyl)-N-({5-[5-(trifluoromethyl)-1,2,4-oxadiazol-3-yl]thiophen-2-yl}methyl)pyridazin-3-amine] has an IC50 (Human HDAC11) of over 10000 nM, an IC50 (Recombinant human HDAC6) of at most 500 nM and an IC50 [1] of at most 10000 nM.

`FC(F)(F)c1nc(-c2ccc(CN(c3cncnc3)c3cnccn3)s2)no1` [Example CR, N-(Pyrazin-2-yl)-N-({5-[5-(trifluoromethyl)-1,2,4-oxadiazol-3-yl]thiophen-2-yl}methyl)pyrimidin-5-amine] showed an IC50 (Human HDAC11) of over 10000 nM, an IC50 (Recombinant human HDAC6) of at most 500 nM and an IC50 [1] of over 10000 nM.

Compound `FC(F)(F)c1nc(-c2ccc(CN(c3cnccn3)c3ccc(N4CCCC4)nn3)s2)no1` [Example DI, N-(Pyrazin-2-yl)-6-(pyrrolidin-1-yl)-N-({5-[5-(trifluoromethyl)-1,2,4-oxadiazol-3-yl]thiophen-2-yl}methyl)pyridazin-3-amine] has an IC50 (Human HDAC11) of over 10000 nM, an IC50 (Recombinant human HDAC6) of at most 500 nM and an IC50 [1] of at most 10000 nM.

`CS(=O)(=O)c1ccc(N(Cc2ccc(-c3noc(C(F)(F)F)n3)s2)c2cnccn2)nn1` [Example DL, 6-Methanesulfonyl-N-(pyrazin-2-yl)-N-({5-[5-(trifluoromethyl)-1,2,4-oxadiazol-3-yl]thiophen-2-yl}methyl)pyridazin-3-amine] gave an IC50 (Human HDAC11) of over 10000 nM, an IC50 (Recombinant human HDAC6) of at most 500 nM and an IC50 [1] of over 10000 nM.
